Holding throughout (type): cell-based
Experiment [1] has as its system H23 cells. The experiment can be described thus: Cell viability assay (CELLTITER-GLO), H23 cells. The following applies: Table 4, 3 days. In a few lines:
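Luminescent CellTiter-Glo readout after 3-day compound treatment (37° C, 5% CO2) of H23 cells plated at 4,000 cells/well in RPMI 1640 plus 10% FBS, DMSO as control. IC50 values given as categorical ranges.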
(In general: Cellular ATP, detected with luciferase, serves as a proxy for viable cell number.)

Experiment [2] has as its system H358 cells. Kind of experiment: Cell viability assay (CELLTITER-GLO), H358 cells. The conditions noted are these: 3 days; for viability at 10 µM: Table 1, compound at 10 μM, read-out: Effect on H358 cell viability (% DMSO). In outline: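 Luminescent ATP read-out (CellTiter-Glo) after 3-day incubation at 37 °C of H358 cells plated at 4,000/well in RPMI 1640 with 10% FBS. Values are either IC50 bins (A ≤1 μM through D >10 μM) or % of DMSO viability at 10 μM or 1 μM, bins A <10% through D ≥50%.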

The test system of experiment [3] is MV-4-11 cells. The experiment can be described thus: Cell viability assay (CELLTITER-GLO), MV-4-11 cells. The following applies: Homo sapiens, MV4-11, 72 h; Table 1; compound at 10 μM, 3 days; read-out: Effect on MV-4-11 cell viability (% DMSO). As to the method:
MOLM-13 cells, MV-4-11 cells, H23, and H358 cells were independently cultured in RPMI 1640 media supplemented with 10% fetal bovine serum, streptomycin and penicillin. The cells were plated in white walled 96-well plates at 4,000 cells/well. The cells were incubated in DMSO (control) or a compound for 3 days at 37° C. under 5% CO2. A CELLTITER-GLO® reagent (100 μL) was then added to each well. After a 10 min incubation with shaking, luminescence was measured using an ENVISION® multimode plate reader.
In Tables 1 and 2, each compound was tested at 10 μM; and in Table 3, each compound was tested at 1 μM. In Tables 1 to 3, the cell viability values as % DMSO are reported as “A,” “B,” “C,” or “D;” where “A” represents a % viability value of less than 10%; “B” represents a % viability value of no less than 10% and less than 25%; “C” represents a % viability value of no less than 25% and less than 50%; and “D” represents a % viability value of no less than 50%. Compound A is […]

Experiment [4] relates to MOLM-13 cells. The experiment can be described thus: Cell viability assay (CELLTITER-GLO), MOLM-13 cells. The following applies: Homo sapiens, MOLM-13, 72 h, 3 days, read-out: Effect on MOLM-13 cell viability (% DMSO); for viability at 10 µM: compound at 10 μM. In outline:
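Viability, as % of DMSO control, was read by CellTiter-Glo luminescence after a 3-day compound exposure (single dose of 10 μM or 1 μM) at 37 °C. Cells plated at 4,000/well in RPMI 1640 with 10% FBS. Results reported as categories A <10%, B 10–<25%, C 25–<50%, D ≥50%.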

Consider ten molecules from patent publication US12630547B2, “RAS protein degraders, pharmaceutical compositions thereof, and their therapeutic applications” (BioTheryX, Inc., priority 2019, dated 2026).

pIC50: −log10 of the molar value. Read-outs that look alike come from different tables or passages of the source.

One may read the pIC50 as −log10 of the IC50, conventionally taken in molar units. As usually defined, the viability is a per cent measure of how many cells are alive, often set against a control. On to `C=CC(=O)N1CCN(c2ncnc3c(F)c(-c4c(O)cccc4F)c(Cl)cc23)CC1` [A, 1-(4-(6-chloro-8-fluoro-7-(2-fluoro-6-hydroxyphenyl)quinazolin-4-yl)piperazin-1-yl)prop-2-en-1-one, reference compound], for which the pIC50 in experiment [1] (Homo sapiens, NCI-H23, 72 h, read-out: Inhibition of H23 cells, IC50) was 5.37; in experiment [2] (Homo sapiens, NCI-H358, 72 h, Table 4, read-out: Inhibition of H358 cells, IC50), 6.00. The viability at 10 µM in experiment [2] (Homo sapiens, NCI-H358, 72 h) is 25 to 50%; in experiment [3], 25 to 50%; in experiment [4] (Table 1), 25 to 50%. Further, the viability at 1 µM in experiment [4] (Table 3, compound at 1 μM) was ≥ 50%.
As for `C=CC(=O)N1CC(N2Cc3ccc(-c4cc(O)cc5ccccc45)cc3N(CCOCCOCCOCCNc3cccc4c3C(=O)N(C3CCC(=O)NC3=O)C4=O)C2=O)C1` (stereo not drawn) [Compound 2, 4-((2-(2-(2-(2-(3-(1-Acryloylazetidin-3-yl)-7-(3-hydroxynaphthalen-1-yl)-2-oxo-3,4-dihydroquinazolin-1(2H)-yl)ethoxy)ethoxy)ethoxy)ethyl)amino)-2-(2,6-dioxopiperidin-3-yl)isoindoline-1,3-dione], the viability at 10 µM in experiment [2] (Homo sapiens, NCI-H358, 72 h) was 10 to 25%; in experiment [3], < 10%; in experiment [4] (Table 1), 10 to 25%.
Turning to `C=CC(=O)N1CCN(c2nc(=O)n(-c3c(C)ccnc3C(C)C)c3nc(-c4c(F)cccc4OCCCCCCCN4CCC(c5cc(F)cc6c5CN(C5CCC(=O)NC5=O)C6=O)CC4)c(F)cc23)[C@@H](C)C1` (stereo partly drawn) [Compound 124, 3-(4-(1-(7-(2-(4-((S)-4-Acryloyl-2-methylpiperazin-1-yl)-6-fluoro-1-(2-isopropyl-4-methylpyridin-3-yl)-2-oxo-1,2-dihydropyrido[2,3-d]pyrimidin-7-yl)-3-fluorophenoxy)heptyl)-piperidin-4-yl)-6-fluoro-1-oxoisoindolin-2-yl)piperidine-2,6-dione], in experiment [1], the “Inhibition of H23 cells, IC50 (class)” value is recorded as “B′”. In addition, the “Inhibition of H358 cells, IC50 (class)” value in experiment [2] (Table 4) is reported as “A′”. Further, the viability at 10 µM in experiment [4] (Table 2) was < 10%.
For `C=C(Cl)C(=O)N1C[C@@H]2C(=O)N(CCCCCCCN3CCC(c4cc(F)cc5c4CN(C4CCC(=O)NC4=O)C5=O)CC3)c3cnc4c(F)c(-c5c(O)cccc5F)c(Cl)cc4c3N2C[C@H]1C` (stereo partly drawn) [Compound 125, 3-(4-(1-(7-((2R,4aR)-11-Chloro-3-(2-chloroacryloyl)-9-fluoro-10-(2-fluoro-6-hydroxyphenyl)-2-methyl-5-oxo-1,2,3,4,4a,5-hexahydro-6H-pyrazino[1′,2′:4,5]pyrazino[2,3-c]quinolin-6-yl)heptyl)piperidin-4-yl)-6-fluoro-1-oxoisoindolin-2-yl)piperidine-2,6-dione], the “Inhibition of H23 cells, IC50 (class)” value in experiment [1] is on record as “B′”. Moreover, the “Inhibition of H358 cells, IC50 (class)” value in experiment [2] (Table 4) was “B′”. In addition, the viability at 10 µM in experiment [4] (Table 2) is < 10%.
On to `C=C(Cl)C(=O)N1CCN(c2nc(=O)n(-c3ccc(CCCCCCCN4CCC(c5cc(F)cc6c5CN(C5CCC(=O)NC5=O)C6=O)CC4)cc3C(C)C)c3nc(-c4c(O)cccc4F)c(F)cc23)[C@@H](C)C1` (stereo partly drawn) [Compound 126, 3-(4-(1-(7-(4-(4-((S)-4-(2-Chloroacryloyl)-2-methylpiperazin-1-yl)-6-fluoro-7-(2-fluoro-6-hydroxyphenyl)-2-oxopyrido[2,3-d]pyrimidin-1(2H)-yl)-3-isopropylphenyl)heptyl)piperidin-4-yl)-6-fluoro-1-oxoisoindolin-2-yl)piperidine-2,6-dione], for which the “Inhibition of H23 cells, IC50 (class)” value in experiment [1] is recorded as “B′”. Further, the “Inhibition of H358 cells, IC50 (class)” value in experiment [2] (Table 4) was “B′”. Besides, in experiment [4] (Table 2), the viability at 10 µM was < 10%.
With `C=C(Cl)C(=O)N1CCN(c2ncnc3c(F)c(-c4c(F)cccc4OC[C@H]4CC[C@@H](CN5CCC(c6cc(F)cc7c6CN(C6CCC(=O)NC6=O)C7=O)CC5)CC4)c(Cl)cc23)CC1` (stereo partly drawn) [Compound 127, 3-(4-(1-(((1s,4s)-4-((2-(6-Chloro-4-(4-(2-chloroacryloyl)piperazin-1-yl)-8-fluoro-quinazolin-7-yl)-3-fluorophenoxy)methyl)cyclohexyl)methyl)piperidin-4-yl)-6-fluoro-1-oxoisoindolin-2-yl)piperidine-2,6-dione], the “Inhibition of H23 cells, IC50 (class)” value in experiment [1] is reported as “A′”. Besides, in experiment [2] (Table 4), the “Inhibition of H358 cells, IC50 (class)” value is on record as “A′”. In experiment [4] (Table 2), the viability at 10 µM is < 10%.
On to `C=C(Cl)C(=O)N1CCN(c2nc(OC[C@@H]3CCCN3C)nc3c(F)c(-c4c(F)cccc4OCCCCCCCN4CCC(c5cc(F)cc6c5CN(C5CCC(=O)NC5=O)C6=O)CC4)c(Cl)cc23)C[C@H]1CC#N` (stereo partly drawn) [Compound 128, 2-((2R)-4-(6-Chloro-7-(2-((7-(4-(2-(2,6-dioxopiperidin-3-yl)-6-fluoro-1-oxoisoindolin-4-yl)piperidin-1-yl)heptyl)oxy)-6-fluorophenyl)-8-fluoro-2-(((S)-1-methylpyrrolidin-2-yl)methoxy)quinazolin-4-yl)-1-(2-chloroacryloyl)piperazin-2-yl)acetonitrile], for which the “Inhibition of H23 cells, IC50 (class)” value in experiment [1] is listed as “A′”. Also, the “Inhibition of H358 cells, IC50 (class)” value in experiment [2] (Table 4) is reported as “A′”. Besides, the viability at 10 µM in experiment [4] (Table 2) was < 10%.
For `C=C(Cl)C(=O)N1CCN(c2ncnc3c(F)c(-c4c(F)cccc4OCCC4CCC(CCN5CCC(c6cc(F)cc7c6CN(C6CCC(=O)NC6=O)C7=O)CC5)CC4)c(Cl)cc23)C[C@H]1CC#N` (stereo partly drawn) [Compound 129, 2-((2R)-4-(6-Chloro-7-(2-(2-(4-(2-(4-(2-(2,6-dioxopiperidin-3-yl)-6-fluoro-1-oxoisoindolin-4-yl)piperidin-1-yl)ethyl)cyclohexyl)ethoxy)-6-fluorophenyl)-8-fluoroquinazolin-4-yl)-1-(2-chloroacryloyl)piperazin-2-yl)acetonitrile], the “Inhibition of H23 cells, IC50 (class)” value in experiment [1] was “B′”. In experiment [2] (Table 4), the “Inhibition of H358 cells, IC50 (class)” value is on record as “A′”. For the same molecule, the viability at 10 µM in experiment [4] (Table 2) is < 10%.
On to `C=C(Cl)C(=O)N1CCN(c2ncnc3c(F)c(-c4c(F)cccc4OCCC4CCC(CCN5CCC(c6cc(F)cc7c6CN(C6CCC(=O)NC6=O)C7=O)CC5)C4)c(Cl)cc23)CC1` (stereo not drawn) [Compound 130, 3-(4-(1-(2-(3-(2-(2-(6-Chloro-4-(4-(2-chloroacryloyl)piperazin-1-yl)-8-fluoroquinazolin-7-yl)-3-fluorophenoxy)ethyl)cyclopentyl)ethyl)piperidin-4-yl)-6-fluoro-1-oxoisoindolin-2-yl)piperidine-2,6-dione], for which, in experiment [1], the “Inhibition of H23 cells, IC50 (class)” value is “A′”. Besides, the “Inhibition of H358 cells, IC50 (class)” value in experiment [2] (Table 4) is “B′”. Also, in experiment [4] (Table 2), the viability at 10 µM was < 10%.
The corresponding values for `CCC(=O)N1CCN(c2ncnc3c(F)c(-c4c(F)cccc4OCCNCC(=O)N4CCC(C#Cc5cccc6c5CN(C5CCC(=O)NC5=O)C6=O)CC4)c(Cl)cc23)CC1` (stereo not drawn) [Compound 133, 3-(4-((1-((2-(2-(6-Chloro-8-fluoro-4-(4-propionylpiperazin-1-yl)quinazolin-7-yl)-3-fluorophenoxy)ethyl)glycyl)piperidin-4-yl)-1λ^5-ethynyl)-1-oxoisoindolin-2-yl)piperidine-2,6-dione] are “D′”, “D′” and ≥ 50%.
